Measurements reported in paper PMC5218480 (PLoS ONE, 2017).

System: MV-4-11 cells
Test: Gene expression microarray analysis (Affymetrix PrimeView) and GSEA
Format: cell-based, human
Set-up: RFU PODN (11730768_x_at) / Fold change /veh PODN (11730768_x_at) / RFU LINC00158 (11744669_a_at) / Fold change /veh LINC00158 (11744669_a_at) / RFU DUSP10 (11751237_a_at) / Fold change /veh DUSP10 (11751237_a_at) / RFU ID3 (11757404_x_at) / Fold change /veh ID3 (11757404_x_at) / RFU PLEKHG5 (11737974_s_at) / Fold change /veh PLEKHG5 (11737974_s_at) / RFU LRRC4B (11730491_at) / Fold change /veh LRRC4B (11730491_at) / RFU GIMAP4 (11747438_a_at) / Fold change /veh GIMAP4 (11747438_a_at) / RFU KRT8 (11758183_x_at) / Fold change /veh KRT8 (11758183_x_at) / RFU CNN1 (11734310_a_at) / Fold change /veh CNN1 (11734310_a_at) / RFU VPS37D (11726825_at) / Fold change /veh VPS37D (11726825_at) / RFU C10orf10 (11716522_x_at) / Fold change /veh C10orf10 (11716522_x_at) / RFU KIR2DL2 /// KIR2DL4 /// KIR2DL5A /// KIR2DL5B /// KIR2DS1 /// KIR2DS2 /// KIR2DS3 /// KIR2DS4 /// KIR3DL3 /// KIR3DL3 /// KIR3DS1 (11738374_at) / Fold change /veh KIR2DL2 /// KIR2DL4 /// KIR2DL5A /// KIR2DL5B /// KIR2DS1 /// KIR2DS2 /// KIR2DS3 /// KIR2DS4 /// KIR3DL3 /// KIR3DL3 /// KIR3DS1 (11738374_at) / RFU C1QL1 (11718748_at) / Fold change /veh C1QL1 (11718748_at) / RFU TMPRSS4 (11747572_a_at) / Fold change /veh TMPRSS4 (11747572_a_at) / RFU HAMP (11756126_x_at) / Fold change /veh HAMP (11756126_x_at) / RFU RNFT2 (11725882_a_at) / Fold change /veh RNFT2 (11725882_a_at) / RFU NR4A2 (11747474_a_at) / Fold change /veh NR4A2 (11747474_a_at) / RFU ABCC12 (11746883_a_at) / Fold change /veh ABCC12 (11746883_a_at) / RFU TMEM136 (11760407_x_at) / Fold change /veh TMEM136 (11760407_x_at) / RFU CLDN22 /// WWC2 (11732394_at) / Fold change /veh CLDN22 /// WWC2 (11732394_at) / RFU HLA-DPB1 (11760878_x_at) / Fold change /veh HLA-DPB1 (11760878_x_at) / RFU SPINT1 (11716480_a_at) / Fold change /veh SPINT1 (11716480_a_at) / RFU GAP43 (11754022_s_at) / Fold change /veh GAP43 (11754022_s_at) / RFU A4GNT (11735810_at) / Fold change /veh A4GNT (11735810_at) / RFU PRB3 (11715151_x_at) / Fold change /veh PRB3 (11715151_x_at) / RFU TUBB4B (11761932_at) / Fold change /veh TUBB4B (11761932_at) / RFU CAPN14 (11732068_a_at) / Fold change /veh CAPN14 (11732068_a_at) / RFU TMCC2 (11721928_a_at) / Fold change /veh TMCC2 (11721928_a_at) / RFU IRGQ (11745062_a_at) / Fold change /veh IRGQ (11745062_a_at) / RFU FAM174B (11720279_a_at) / Fold change /veh FAM174B (11720279_a_at) / RFU TMPRSS4 (11748680_a_at) / Fold change /veh TMPRSS4 (11748680_a_at) / RFU FAM212B (11763350_a_at) / Fold change /veh FAM212B (11763350_a_at) / RFU PLEKHG5 (11743358_a_at) / Fold change /veh PLEKHG5 (11743358_a_at) / RFU ZSCAN30 (11745921_a_at) / Fold change /veh ZSCAN30 (11745921_a_at) / RFU CMKLR1 (11741424_a_at) / Fold change /veh CMKLR1 (11741424_a_at) / RFU LOC101060620 /// MAPK8IP1 (11723275_at) / Fold change /veh LOC101060620 /// MAPK8IP1 (11723275_at) / RFU SPTSSB (11747773_x_at) / Fold change /veh SPTSSB (11747773_x_at) / RFU PRSS12 (11739890_at) / Fold change /veh PRSS12 (11739890_at) / RFU BIN1 (11741810_x_at) / Fold change /veh BIN1 (11741810_x_at) / RFU WNT11 (11732464_a_at) / Fold change /veh WNT11 (11732464_a_at) / RFU C10orf10 (11716521_a_at) / Fold change /veh C10orf10 (11716521_a_at) / RFU C5orf56 (11738089_at) / Fold change /veh C5orf56 (11738089_at) / RFU CYB561 (11721691_x_at) / Fold change /veh CYB561 (11721691_x_at) / RFU ANKRD19P (11752326_a_at) / Fold change /veh ANKRD19P (11752326_a_at) / RFU OR2T12 /// OR2T33 /// OR2T8 (11738714_s_at) / Fold change /veh OR2T12 /// OR2T33 /// OR2T8 (11738714_s_at) / RFU VCAN (11748164_a_at) / Fold change /veh VCAN (11748164_a_at) / RFU JSRP1 (11732532_at) / Fold change /veh JSRP1 (11732532_at) / RFU KRTAP10-11 (11738290_x_at) / Fold change /veh KRTAP10-11 (11738290_x_at) / RFU MYO3A (11730013_a_at) / Fold change /veh MYO3A (11730013_a_at) / RFU EBF3 (11725865_a_at) / Fold change /veh EBF3 (11725865_a_at) / RFU CAMK2N1 (11719241_x_at) / Fold change /veh CAMK2N1 (11719241_x_at) / RFU C5orf56 (11738088_a_at) / Fold change /veh C5orf56 (11738088_a_at) / RFU OLFML3 (11715873_a_at) / Fold change /veh OLFML3 (11715873_a_at) / RFU LOC100653217 /// NTM (11731650_a_at) / Fold change /veh LOC100653217 /// NTM (11731650_a_at) / RFU MAPK11 (11762145_a_at) / Fold change /veh MAPK11 (11762145_a_at) / RFU FIZ1 (11724087_x_at) / Fold change /veh FIZ1 (11724087_x_at) / RFU OASL (11726364_x_at) / Fold change /veh OASL (11726364_x_at) / RFU SOX15 (11748057_x_at) / Fold change /veh SOX15 (11748057_x_at) / RFU CD79A (11719716_a_at) / Fold change /veh CD79A (11719716_a_at) / RFU HIST1H1D (11736915_at) / Fold change /veh HIST1H1D (11736915_at) / RFU CASKIN2 (11723855_a_at) / Fold change /veh CASKIN2 (11723855_a_at) / RFU LOC730098 (11760151_x_at) / Fold change /veh LOC730098 (11760151_x_at) / RFU OR4N2 (11742367_at) / Fold change /veh OR4N2 (11742367_at) / RFU PRRT2 (11749266_a_at) / Fold change /veh PRRT2 (11749266_a_at) / RFU SNX32 (11753110_a_at) / Fold change /veh SNX32 (11753110_a_at) / RFU CDHR5 (11726645_a_at) / Fold change /veh CDHR5 (11726645_a_at) / RFU RCAN1 (11760418_a_at) / Fold change /veh RCAN1 (11760418_a_at) / RFU FAM167A (11723789_a_at) / Fold change /veh FAM167A (11723789_a_at) / RFU FAM26E (11764081_at) / Fold change /veh FAM26E (11764081_at) / RFU ISYNA1 (11749810_s_at) / Fold change /veh ISYNA1 (11749810_s_at) / RFU ACY1 (11761880_at) / Fold change /veh ACY1 (11761880_at) / RFU 11764098_at / Fold change /veh 11764098_at / RFU SAMD14 (11745864_x_at) / Fold change /veh SAMD14 (11745864_x_at) / RFU NPB (11741838_a_at) / Fold change /veh NPB (11741838_a_at) / RFU TMPRSS6 (11731388_a_at) / Fold change /veh TMPRSS6 (11731388_a_at) / RFU KRTAP10-2 (11738614_at) / Fold change /veh KRTAP10-2 (11738614_at) / RFU ARHGAP8 /// PRR5-ARHGAP8 (11727945_x_at) / Fold change /veh ARHGAP8 /// PRR5-ARHGAP8 (11727945_x_at) / RFU KRTAP5-7 /// NADSYN1 (11734609_at) / Fold change /veh KRTAP5-7 /// NADSYN1 (11734609_at) / RFU RASL12 (11751679_a_at) / Fold change /veh RASL12 (11751679_a_at) / RFU CDKN2B (11736163_a_at) / Fold change /veh CDKN2B (11736163_a_at) / RFU PRF1 (11729649_at) / Fold change /veh PRF1 (11729649_at) / RFU, ZNF638 /// ZNF638-IT1 / Fold change vs veh, ZNF638 /// ZNF638-IT1 / RFU, PANK3 / Fold change vs veh, PANK3 / RFU, SH3YL1 / Fold change vs veh, SH3YL1 / RFU, ZEB2 / Fold change vs veh, ZEB2 / RFU, NRIP1 / Fold change vs veh, NRIP1 / RFU, PTTG1IP / Fold change vs veh, PTTG1IP / RFU, CAPN2 / Fold change vs veh, CAPN2 / RFU, MED14 / Fold change vs veh, MED14 / RFU, SNORA58 / Fold change vs veh, SNORA58 / RFU, C1orf63 / Fold change vs veh, C1orf63 / RFU, LRRFIP1 / Fold change vs veh, LRRFIP1 / RFU, NDUFAF7 / Fold change vs veh, NDUFAF7 / RFU, SLC12A2 / Fold change vs veh, SLC12A2 / RFU, IBTK / Fold change vs veh, IBTK / RFU, ESF1 / Fold change vs veh, ESF1 / Fold change vs veh, TMEM50B / RFU, TAOK1 / Fold change vs veh, TAOK1 / RFU, ACBD3 / Fold change vs veh, ACBD3 / RFU, TMA16 / Fold change vs veh, TMA16 / RFU, RWDD3 / Fold change vs veh, RWDD3 / RFU, BCAT1 / Fold change vs veh, BCAT1 / RFU, EDEM3 / Fold change vs veh, EDEM3 / RFU, TMEM33 / Fold change vs veh, TMEM33 / RFU, WDR75 / Fold change vs veh, WDR75 / RFU, AHCTF1 / Fold change vs veh, AHCTF1 / RFU, TFRC / Fold change vs veh, TFRC / RFU, ZDHHC17 / Fold change vs veh, ZDHHC17 / RFU, NOM1 / Fold change vs veh, NOM1 / RFU, ARL8B / Fold change vs veh, ARL8B / RFU, ZBTB11 / Fold change vs veh, ZBTB11 / RFU, TAMM41 / Fold change vs veh, TAMM41 / RFU, KIAA1704 /// LOC100996395 / Fold change vs veh, KIAA1704 /// LOC100996395 / RFU, ING1 / Fold change vs veh, ING1 / RFU, TRMT61B / Fold change vs veh, TRMT61B / RFU, FUBP3 / Fold change vs veh, FUBP3 / RFU, TP53 / Fold change vs veh, TP53 / RFU, TNKS2 / Fold change vs veh, TNKS2 / RFU, ZFP14 / Fold change vs veh, ZFP14 / RFU, ACTR2 / Fold change vs veh, ACTR2 / RFU, PPP3R1 / Fold change vs veh, PPP3R1 / RFU, PIK3R1 / Fold change vs veh, PIK3R1 / RFU, HNRNPA1 / Fold change vs veh, HNRNPA1 / RFU, RNF170 / Fold change vs veh, RNF170 / RFU, ZNF28 / Fold change vs veh, ZNF28 / RFU, RNGTT / Fold change vs veh, RNGTT / RFU, OGT / Fold change vs veh, OGT / RFU, BRD1 / Fold change vs veh, BRD1 / RFU, MARS / Fold change vs veh, MARS / RFU, ZNF655 / Fold change vs veh, ZNF655 / RFU, FAHD1 / Fold change vs veh, FAHD1 / RFU, BDP1 / Fold change vs veh, BDP1 / RFU, LRRCC1 / Fold change vs veh, LRRCC1 / RFU, ARID1A / Fold change vs veh, ARID1A / RFU, ZNF146 / Fold change vs veh, ZNF146 / RFU, ZNF330 / Fold change vs veh, ZNF330 / RFU, GPN3 / Fold change vs veh, GPN3 / RFU, C9orf123 / Fold change vs veh, C9orf123 / RFU, N4BP2L2 / Fold change vs veh, N4BP2L2 / RFU, ARFIP1 / Fold change vs veh, ARFIP1 / RFU, FAM179B / Fold change vs veh, FAM179B / RFU, BCL10 / Fold change vs veh, BCL10 / RFU, UHRF1BP1L / Fold change vs veh, UHRF1BP1L / RFU, BET1 / Fold change vs veh, BET1 / RFU, CNOT2 / Fold change vs veh, CNOT2 / RFU, ZNF268 / Fold change vs veh, ZNF268 / Fold change vs veh, ZNF507 / RFU, DGCR2 / Fold change vs veh, DGCR2 / RFU, WDSUB1 / Fold change vs veh, WDSUB1 / Fold change vs veh, HSP90B1 /// MIR3652 / RFU, ADSS / Fold change vs veh, ADSS / RFU, GK / Fold change vs veh, GK / RFU, ZNF148 / Fold change vs veh, ZNF148 / RFU, TAF9 / Fold change vs veh, TAF9 / RFU, SLC1A5 / Fold change vs veh, SLC1A5 / RFU, SLMO2 / Fold change vs veh, SLMO2 / RFU, ABCC4 / Fold change vs veh, ABCC4 / RFU, LOC101060439 /// RAP1B / Fold change vs veh, LOC101060439 /// RAP1B / RFU, RFX7 / Fold change vs veh, RFX7 / RFU, GTPBP10 / Fold change vs veh, GTPBP10 / RFU, CNEP1R1 / Fold change vs veh, CNEP1R1 / RFU, BIVM-ERCC5 /// ERCC5 / Fold change vs veh, BIVM-ERCC5 /// ERCC5 / RFU, ILF3 / Fold change vs veh, ILF3 / RFU 11762660_at / Fold change /veh 11762660_at / RFU VCAN (11757783_s_at) / Fold change /veh VCAN (11757783_s_at) / RFU DDX43 (11728927_at) / Fold change /veh DDX43 (11728927_at) / RFU KRT8 (11758188_x_at) / Fold change /veh KRT8 (11758188_x_at) / RFU NKD1 (11759106_at) / Fold change /veh NKD1 (11759106_at) / RFU SRD5A1 (11742802_a_at) / Fold change /veh SRD5A1 (11742802_a_at) / RFU TPSAB1 /// TPSB2 (11721975_s_at) / Fold change /veh TPSAB1 /// TPSB2 (11721975_s_at) / RFU GSTM3 (11746129_a_at) / Fold change /veh GSTM3 (11746129_a_at) / RFU IL23R (11737362_x_at) / Fold change /veh IL23R (11737362_x_at) / RFU TMEM51 (11727254_a_at) / Fold change /veh TMEM51 (11727254_a_at) / RFU PIWIL2 (11732686_x_at) / Fold change /veh PIWIL2 (11732686_x_at) / RFU ORM1 (11744905_x_at) / Fold change /veh ORM1 (11744905_x_at) / RFU CCDC152 (11743942_at) / Fold change /veh CCDC152 (11743942_at) / RFU ECM1 (11717891_a_at) / Fold change /veh ECM1 (11717891_a_at) / RFU IL23R (11748794_a_at) / Fold change /veh IL23R (11748794_a_at) / RFU TNFAIP8L3 (11732012_x_at) / Fold change /veh TNFAIP8L3 (11732012_x_at) / RFU MBOAT4 (11741988_at) / Fold change /veh MBOAT4 (11741988_at) / RFU 11764193_at / Fold change /veh 11764193_at / RFU TMEM53 (11763286_at) / Fold change /veh TMEM53 (11763286_at) / RFU MAGEB2 (11727129_at) / Fold change /veh MAGEB2 (11727129_at) / RFU TMEM200A (11744735_a_at) / Fold change /veh TMEM200A (11744735_a_at) / RFU CCDC152 (11751479_a_at) / Fold change /veh CCDC152 (11751479_a_at) / RFU FAM211A (11726209_a_at) / Fold change /veh FAM211A (11726209_a_at) / RFU RGS16 (11746705_a_at) / Fold change /veh RGS16 (11746705_a_at) / RFU VCAN (11755009_s_at) / Fold change /veh VCAN (11755009_s_at) / RFU RHOB (11743442_s_at) / Fold change /veh RHOB (11743442_s_at) / RFU RGS16 (11720943_a_at) / Fold change /veh RGS16 (11720943_a_at) / RFU RGS16 (11720944_at) / Fold change /veh RGS16 (11720944_at) / RFU, VPS4B / Fold change vs veh, VPS4B / RFU, CREB1 / Fold change vs veh, CREB1 / RFU, DNAJC13 / Fold change vs veh, DNAJC13 / RFU, GNAQ / Fold change vs veh, GNAQ / RFU, CDK5R1 / Fold change vs veh, CDK5R1 / RFU, ZRANB3 / Fold change vs veh, ZRANB3 / RFU, CUL4A / Fold change vs veh, CUL4A / RFU, CCNY / Fold change vs veh, CCNY / RFU, UFL1 / Fold change vs veh, UFL1 / RFU, COG3 / Fold change vs veh, COG3 / RFU, DIAPH2 / Fold change vs veh, DIAPH2 / RFU, SKA2 / Fold change vs veh, SKA2 / RFU, AFF3 / Fold change vs veh, AFF3 / RFU, LMF1 / Fold change vs veh, LMF1 / RFU, IPO11 / Fold change vs veh, IPO11 / RFU, DFFB / Fold change vs veh, DFFB / RFU, FOXP1 / Fold change vs veh, FOXP1 / RFU, CARD8 / Fold change vs veh, CARD8 / RFU, STRN3 / Fold change vs veh, STRN3 / RFU, ADK / Fold change vs veh, ADK / RFU, RASSF2 / Fold change vs veh, RASSF2 / RFU, WIPF1 / Fold change vs veh, WIPF1 / RFU, LARP1B / Fold change vs veh, LARP1B / RFU, RASA1 / Fold change vs veh, RASA1 / RFU, RB1 / Fold change vs veh, RB1 / RFU, PPFIA1 / Fold change vs veh, PPFIA1 / RFU, MAT2A / Fold change vs veh, MAT2A / RFU, CCT5 / Fold change vs veh, CCT5 / RFU, WDR92 / Fold change vs veh, WDR92 / RFU, CUX1 / Fold change vs veh, CUX1 / RFU, TTC7A / Fold change vs veh, TTC7A / RFU, TMEM135 / Fold change vs veh, TMEM135 / RFU, DEPTOR / Fold change vs veh, DEPTOR / RFU, CPM / Fold change vs veh, CPM / RFU, DNAJB6 / Fold change vs veh, DNAJB6 / RFU, CACNA2D3 / Fold change vs veh, CACNA2D3 / RFU, DTX4 / Fold change vs veh, DTX4 / RFU, TFCP2 / Fold change vs veh, TFCP2 / RFU, GMCL1 /// GMCL1P1 / Fold change vs veh, GMCL1 /// GMCL1P1 / RFU, AEBP2 / Fold change vs veh, AEBP2 / RFU, SNHG1 /// SNORD22 /// SNORD25 /// SNORD26 /// SNORD27 /// SNORD28 /// SNORD29 /// SNORD31 / Fold change vs veh, SNHG1 /// SNORD22 /// SNORD25 /// SNORD26 /// SNORD27 /// SNORD28 /// SNORD29 /// SNORD31 / Fold change (Aza/veh), C12orf56 (ProbeSet 11735607_a_at) / Fold change (ACY-1035/veh), C12orf56 (ProbeSet 11735607_a_at) / Fold change (Aza/veh), FGFR1OP (ProbeSet 11751329_s_at) / Fold change (ACY-1035/veh), FGFR1OP (ProbeSet 11751329_s_at) / Fold change (Aza/veh), VPS36 (ProbeSet 11739960_a_at) / Fold change (ACY-1035/veh), VPS36 (ProbeSet 11739960_a_at) / RFU SYPL1 (11715823_x_at) / Fold change /veh SYPL1 (11715823_x_at) / RFU IGFBP7 (11715501_s_at) / Fold change /veh IGFBP7 (11715501_s_at) / RFU REEP3 (11722064_at) / Fold change /veh REEP3 (11722064_at) / RFU IGLL1 (11728026_x_at) / Fold change /veh IGLL1 (11728026_x_at): dose or concentration left out as unconfirmed
Details: MV-4-11 cells, 48 hours

Nc1ccc(-c2cccs2)cc1NC(=O)c1ccc2c(c1)cc(C1CC1)n2CCN1CCOCC1 [ACY-1035]
RFU TMEM136 (11760407_x_at): 15.13 RFU
